Laboratory results taken from US20240034736A1, “HSD17B13 INHIBITORS AND USES THEREOF” (FL2022-001, Inc., priority 2020, published 2024).

target: Recombinant human HSD17B13 enzyme (Homo sapiens (Human), UniProt Q7Z5P4); assay: HSD17b13 NAD(P)H-Glo Biochemical Assay; conditions: 50 uM estradiol, 1 mM NAD+; read-out: HSD17β13 IC50
Summary of the method: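 Luminescent NAD(P)H-Glo detection (1 h, RT) quantified cofactor reduction after a 3 h, 37° C reaction of human HSD17B13 with estradiol (50 uM final) and NAD+ (1 mM final). Compounds were first pre-incubated 20 min at RT with enzyme in Tris pH 7.4 buffer containing Tween-20 and BSA.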

Chain of Recombinant human HSD17B13 enzyme (Q7Z5P4 20-300): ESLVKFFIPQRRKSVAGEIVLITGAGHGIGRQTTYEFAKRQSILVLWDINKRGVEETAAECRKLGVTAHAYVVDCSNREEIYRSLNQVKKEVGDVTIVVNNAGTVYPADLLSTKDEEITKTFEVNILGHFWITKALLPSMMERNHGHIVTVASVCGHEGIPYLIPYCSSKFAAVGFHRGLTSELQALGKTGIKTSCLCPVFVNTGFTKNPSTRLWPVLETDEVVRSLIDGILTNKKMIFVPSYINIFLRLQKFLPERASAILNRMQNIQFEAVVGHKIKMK

Question: With Cc1nn(-c2cc(C(F)(F)F)c(F)c(O)c2F)c2cnc(N3CCOCC34CCC4)cc12 [Compound 19.65, 2,6-Difluoro-3-(3-methyl-5-(8-oxa-5-azaspiro[3.5]nonan-5-yl)-1H-pyrazolo[3,4-c]pyridin-1-yl)-5-(trifluoromethyl)phenol] as the compound, how does the IC50 read?
Answer: < 100 nM

Question: For Oc1cncc(-c2ccc3c(cnn3-c3cc(O)c(F)c(F)c3)c2)c1 [Compound 7.03, 5-(1-(3,4-Difluoro-5-hydroxyphenyl)-1H-indazol-5-yl)pyridine-3-ol], which IC50 is on record?
Answer: 100 to 1000 nM

Question: With Oc1cc(-n2ncc3cc(-c4ccc(OC(F)F)cc4Cl)ccc32)ccc1F [Compound 5.08, 5-(5-(2-Chloro-4-(difluoromethoxy)phenyl)-1H-indazol-1-yl)-2-fluorophenol] as the compound, how does the IC50 read?
Answer: 100 to 1000 nM

Question: With CN(C)C(=O)c1ccc(-c2ccc3c(cnn3-c3ccc(F)c(O)c3)c2)c(Cl)c1 [Compound 5.10, 3-Chloro-4-(1-(4-fluoro-3-hydroxyphenyl)-1H-indazol-5-yl)-N,N-dimethylbenzamide] as the compound, how does the IC50 read?
Answer: 100 to 1000 nM

Question: With Cc1nn(-c2cc(C(F)(F)F)c(F)c(O)c2F)c2cnc(N3CCO[C@@H](c4ccccc4)C3)cc12 [Compound 19.109, (S)-2,6-Difluoro-3-(3-methyl-5-(2-phenylmorpholino)-1H-pyrazolo[3,4-c]pyridin-1-yl)-5-(trifluoromethyl)phenol] as the compound, how does the IC50 read?
Answer: 100 to 1000 nM

Question: With Cc1cc(O)c(F)c(-n2ncc3cc(N4CCN(S(C)(=O)=O)CC4)ccc32)c1 [Compound 28.05, 2-Fluoro-5-methyl-3-(5-(4-(methylsulfonyl)piperazin-1-yl)-1H-indazol-1-yl)phenol] as the compound, how does the IC50 read?
Answer: 1000 to 30000 nM

Question: For Cc1nn(-c2cc(C(F)(F)F)c(F)c(O)c2F)c2cnc(N3CCOCC34CC4)cc12 [Compound 19.44, 2,6-Difluoro-3-(3-methyl-5-(7-oxa-4-azaspiro[2.5]octan-4-yl)-1H-pyrazolo[3,4-c]pyridine-1-yl)-5-(trifluoromethyl)phenol], which IC50 is on record?
Answer: < 100 nM

Question: How did the IC50 turn out when COc1cccc(-c2ccc3c(cnn3-c3ccc(F)c(O)c3)c2)c1 [Compound 5.21, 2-Fluoro-5-(5-(3-methoxyphenyl)-1H-indazol-1-yl)phenol] was run?
Answer: 1000 to 30000 nM

Question: COC1CCN(c2cc3c(C)nn(-c4cc(C(F)(F)F)c(F)c(O)c4F)c3cn2)CC1 [Compound 19.51, 2,6-Difluoro-3-(5-(4-methoxypiperidin-1-yl)-3-methyl-1H-pyrazolo[3,4-c]pyridine-1-yl)-5-(trifluoromethyl)phenol] was tested. Which IC50 did it give?
Answer: 100 to 1000 nM

Question: With CS(=O)(=O)N1CCN(c2cc3cnn(-c4cc(O)c(F)c(C(F)(F)F)c4)c3cc2F)CC1 [Compound 19.01, 2-Fluoro-5-(6-fluoro-5-(4-(methylsulfonyl)piperazin-1-yl)-1H-indazol-1-yl)-3-(trifluoromethyl)phenol] as the compound, how does the IC50 read?
Answer: 100 to 1000 nM

Question: CNc1c(-n2nc(Cl)c3cc(N(C)C4CCOCC4)ccc32)cc(C(F)(F)F)c(F)c1O [Compound 19.91, 3-(3-Chloro-5-(methyl(tetrahydro-2H-pyran-4-yl)amino)-1H-indazol-1-yl)-6-fluoro-2-(methylamino)-5-(trifluoromethyl)phenol] was tested. Which IC50 did it give?
Answer: 100 to 1000 nM

Question: Oc1cc(-n2ncc3cc(-c4ccc(Cl)c(O)c4)ccc32)ccc1F [Compound 5.01, 2-Chloro-5-(1-(4-fluoro-3-hydroxyphenyl)-1H-indazol-5-yl)phenol] was tested. Which IC50 did it give?
Answer: 100 to 1000 nM

Question: Which IC50 does the source give for CN(c1ccc2c(c1)c(C(=O)O)nn2-c1cc(C(F)(F)F)c(F)c(O)c1F)C1CCOCC1 [Compound 19.89, 1-(2,4-Difluoro-3-hydroxy-5-(trifluoromethyl)phenyl)-5-(methyl(tetrahydro-2H-pyran-4-yl)amino)-1H-indazole-3-carboxylic Acid] here?
Answer: 1000 to 30000 nM

Question: With O=S(=O)(C1CC1)N1CCN(c2cc3cnn(-c4cc(O)c(F)c(F)c4)c3cc2Cl)CC1 [Compound 21.32, 5-(6-Chloro-5-(4-(cycloprop-ylsulfonyl)piperazin-1-yl)-1H-indazol-1-yl)-2,3-difluoro-phenol] as the compound, how does the IC50 read?
Answer: 100 to 1000 nM

Question: For Oc1ccc(-c2cc3cnn(-c4cc(O)c(F)c(F)c4)c3cc2Cl)cc1Cl [Compound 4.16, 5-(6-Chloro-5-(3-chloro-4-hydroxyphenyl)-1H-indazol-1-yl)-2,3-difluorophenol], which IC50 is on record?
Answer: 100 to 1000 nM

Question: With COc1ccc(Nc2ccc3c(cnn3-c3ccc(F)c(O)c3)c2)cc1Cl [Compound 22, 5-(5-((3-Chloro-4-methoxyphenyl)amino)-1H-indazol-1-yl)-2-fluorophenol] as the compound, how does the IC50 read?
Answer: 100 to 1000 nM

Question: With CS(=O)(=O)NC1CN(c2ccc3c(cnn3-c3cc(O)c(F)c(F)c3)c2)C1 [Compound 21.07, N-(1-(1-(3,4-Difluoro-5-hydroxyphenyl)-1H-indazol-5-yl)azetidine-3-yl)methane-sulfonamide] as the compound, how does the IC50 read?
Answer: 1000 to 30000 nM

Question: How did the IC50 turn out when CN(c1ccc2c(c1)c(N)nn2-c1cc(C(F)(F)F)c(F)c(O)c1F)C1CCOCC1 [Compound 19.93, 3-(3-Amino-5-(methyl(tetrahydro-2H-pyran-4-yl)amino)-1H-indazol-1-yl)-2,6-difluoro-5-(trifluoromethyl)phenol] was run?
Answer: 100 to 1000 nM

Question: For CS(=O)(=O)N1CCN(c2cc3cnn(-c4cc(O)c(F)c(Cl)c4)c3cn2)CC1 [Compound 19.21, 3-Chloro-2-fluoro-5-(5-(4-(methylsulfonyl)piperazin-1-yl)-1H-pyrazolo[3,4-c]pyridine-1-yl)phenol], which IC50 is on record?
Answer: 100 to 1000 nM

Question: COc1ccc(-c2ccc3c(cnn3-c3ccc(F)c(O)c3)c2)c(Cl)c1 [Compound 5.03, 5-(5-(2-Chloro-4-methoxyphenyl)-1H-indazol-1-yl)-2-fluorophenol] was tested. Which IC50 did it give?
Answer: 100 to 1000 nM

Question: Oc1c(F)c(-n2ncc3nc(N4CCOCC45CC5)ncc32)cc(C(F)(F)F)c1F [Compound 19.80, 3-(5-(7-Oxa-4-azaspiro[2.5]octan-4-yl)-1H-pyrazolo[4,3-d]pyrimidin-1-yl)-2,6-difluoro-5-(trifluoromethyl)phenol] was tested. Which IC50 did it give?
Answer: 100 to 1000 nM

Question: How did the IC50 turn out when CS(=O)(=O)N1CCN(c2cc3cnn(-c4cc(O)c(F)c(F)c4)c3cc2Cl)CC1 [Compound 21.13, 5-(6-Chloro-5-(4-(methyl-sulfonyl)piperazin-1-yl)-1H-indazol-1-yl)-2,3-difluoro-phenol] was run?
Answer: 100 to 1000 nM

Question: How did the IC50 turn out when Oc1ccc(-c2ccc3c(cnn3-c3cc(O)c(F)c(F)c3)c2)c(Cl)c1 [Compound 4.10, 5-(5-(2-Chloro-4-hydroxyphenyl)-1H-indazol-1-yl)-2,3-difluorophenol] was run?
Answer: 100 to 1000 nM

Question: CC1CN(S(C)(=O)=O)CCN1c1cc2cnn(-c3cc(O)c(F)c(C(F)(F)F)c3)c2cn1 (stereo not drawn) [Compound 19.33, 2-Fluoro-5-(5-(2-methyl-4-(methylsulfonyl)piperazin-1-yl)-1H-pyrazolo[3,4-c]pyridine-1-yl)-3-(trifluoromethyl)phenol] was tested. Which IC50 did it give?
Answer: 100 to 1000 nM

same assay, conditions: read-out: HSD17β13 inhibition at 10 uM

Question: With Cc1nn(-c2cccc(O)c2C#N)c2cnc(N(C)C3CCOCC3)cc12 [Compound 19.120, 2-Hydroxy-6-(3-methyl-5-(methyl(tetrahydro-2H-pyran-4-yl)amino)-1H-pyrazolo[3,4-c]pyridin-1-yl)benzonitrile] as the compound, how does the inhibition at 10 µM read?
Answer: 25%

same assay, conditions: read-out: HSD17β13 inhibition at 30 uM

Question: With COC(=O)c1cc2cc(N3CCN(S(C)(=O)=O)CC3)ccc2n1-c1ccc(F)c(O)c1 [Compound 21.62, Methyl 1-(4-fluoro-3-hydroxy-phenyl)-5-(4-(methylsulfonyl)-piperazin-1-yl)-1H-indole-2-carboxylate] as the compound, how does the inhibition at 30 µM read?
Answer: < 20%

Question: For Cc1ccc(O)c(F)c1-n1ncc2cc(N3CCN(S(C)(=O)=O)CC3)ncc21 [Compound 19.43, 2-Fluoro-4-methyl-3-(5-(4-(methylsulfonyl)piperazin-1-yl)-1H-pyrazolo[3,4-c]pyridine-1-yl)phenol], which inhibition at 30 µM is on record?
Answer: 45%
